# Laboratory results published in ChEMBL document CHEMBL3351318, “Synthesis of novel 4-nitropyrrole-based semicarbazide and thiosemicarbazide hybrids with antimicrobial and anti-tubercular activity” (Bioorg Med Chem Lett, 2014).
# Experiments:
# Escherichia coli = test: Antimicrobial activity against Escherichia coli ATCC 25922 after 48 hrs by broth dilution technique; type: functional; settings: ATCC 25922, 48 h
# Staphylococcus aureus [1] = test: Antimicrobial activity against methicillin-resistant Staphylococcus aureus ATCC 43866 after 48 hrs by broth dilution technique; type: functional; settings: ATCC 43866, 48 h
# Klebsiella pneumoniae = test: Antimicrobial activity against Klebsiella pneumoniae after 48 hrs by broth dilution technique; type: functional
# Staphylococcus aureus [2] = test: Antimicrobial activity against methicillin-sensitive Staphylococcus aureus ATCC 35556 after 48 hrs by broth dilution technique; type: functional; settings: ATCC 35556, 48 h
# Candida albicans [3] = test: Antimicrobial activity against Candida albicans after 48 hrs by agar dilution method; type: functional
# [4] = system: Mycobacterium tuberculosis; test: Antitubercular activity against Mycobacterium tuberculosis H37Rv after 7 days by Resazurin micro titer assay; type: functional; settings: 168 h
# Vero = test: Cytotoxicity against African green monkey Vero cells assessed as reduction in cell viability after 72 hrs by MTT assay; type: cell-based; settings: Chlorocebus sabaeus
# Candida albicans [5] = test: Ratio of Amphotericin B MIC to compound MIC for Candida albicans after 48 hrs by broth dilution technique; type: functional
Structure (SMILES),MIC (Escherichia coli) [µg/mL],MIC (Staphylococcus aureus [1]) [µg/mL],MIC (Klebsiella pneumoniae) [µg/mL],MIC (Staphylococcus aureus [2]) [µg/mL],MIC (Candida albicans [3]) [µg/mL],MIC [4] [µg/mL],IC50 (Vero) [µM],Ratio (Candida albicans [5])
O=C(NNC(=O)c1cc([N+](=O)[O-])c[nH]1)Nc1ccccc1,3.12,3.12,3.12,1.56,3.12,40.6,357,–
COc1ccc(NC(=O)NNC(=O)c2cc([N+](=O)[O-])c[nH]2)cc1,3.12,3.12,3.12,1.56,3.12,2.5,401,–
O=C(NNC(=O)c1cc([N+](=O)[O-])c[nH]1)Nc1ccc([N+](=O)[O-])cc1,3.12,3.12,3.12,1.56,3.12,0.8,211,–
O=C(NNC(=O)c1cc([N+](=O)[O-])c[nH]1)Nc1ccc(Br)cc1,3.12,3.12,3.12,1.56,3.12,1.1,378,–
O=C(NNC(=O)c1cc([N+](=O)[O-])c[nH]1)Nc1ccc(Cl)cc1,3.12,6.25,3.12,3.12,3.12,2,218,–
COc1ccc(OC)c(NC(=O)NNC(=O)c2cc([N+](=O)[O-])c[nH]2)c1,3.12,3.12,3.12,1.56,3.12,14.5,333,–
O=C(NCc1ccccc1)NNC(=O)c1cc([N+](=O)[O-])c[nH]1,6.25,3.12,6.25,1.56,3.12,15.2,348,–
O=C(NCCc1ccccc1)NNC(=O)c1cc([N+](=O)[O-])c[nH]1,6.25,6.25,6.25,3.12,3.12,10.3,220,–
O=C(NCc1ccco1)NNC(=O)c1cc([N+](=O)[O-])c[nH]1,3.12,3.12,3.12,1.56,3.12,0.92,443,–
O=C(NNC(=O)c1cc([N+](=O)[O-])c[nH]1)NC1CCCC1,3.12,3.12,3.12,1.56,3.12,12.5,231,–
Cn1cc([N+](=O)[O-])cc1C(=O)NNC(=O)Nc1ccccc1,1.56,3.12,3.12,1.56,1.56,59.2,306,2
COc1ccc(NC(=O)NNC(=O)c2cc([N+](=O)[O-])cn2C)cc1,1.56,3.12,3.12,1.56,1.56,26.1,328,2
Cn1cc([N+](=O)[O-])cc1C(=O)NNC(=O)Nc1ccc([N+](=O)[O-])cc1,1.56,3.12,3.12,1.56,1.56,11.9,402,2
Cn1cc([N+](=O)[O-])cc1C(=O)NNC(=O)Nc1ccc(Br)cc1,1.56,3.12,3.12,1.56,1.56,7.8,602,2
